Assay results reported in paper PMC5320522, “Membrane targeting of TIRAP is negatively regulated by phosphorylation in its phosphoinositide-binding motif” (Scientific Reports, 2017).
Like-named read-outs stand apart in the source and are kept apart here.

How the values were obtained:
Assay type in all cases: binding
TIRAP PBM [1] = target: T1, TIRAP PBM (Homo sapiens, UniProt P58753); assay: SPR, L1 chip with liposomes, steady-state fit; settings: DOPC liposomes with 5% PtdIns(4,5)P2; 20 mM HEPES pH 7, 100 mM NaCl; room temperature; read-out: KD (apparent)
T1 construct: recombinant (isotope-labelled) or synthetic (Thr28-P); GST-fused in overlay assays

TIRAP PBM [2] = target: T1, TIRAP PBM; assay: SPR, L1 chip with liposomes, steady-state fit; settings: DOPC liposomes with 5% PtdIns(4,5)P2; 20 mM HEPES pH 7, 100 mM NaCl; room temperature; synthetic peptide phosphorylated at Thr28; saturation not reached
TIRAP PBM [3] = target: T1, TIRAP PBM; assay: 1H, […]-HSQC NMR; lipid-protein overlay; settings: DPC micelles, pH 6, 25 °C (NMR)

T1 sequence (P58753 15-35): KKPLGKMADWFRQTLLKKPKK

| Kd (TIRAP PBM [1]) | Kd (TIRAP PBM [2]) | Compound | 1H,15N-HSQC NMR; lipid-protein overlay (TIRAP PBM [3]) |
| --- | --- | --- | --- |
| 233 ± 45 nM | 787 ± 291 nM | PtdIns(4,5)P2 | – |
| – | – | CCCCCCCCCCCCCCCC(=O)OC[C@H](COP(=O)(O)O[C@@H]1[C@H](O)[C@H](O)[C@@H](OP(=O)(O)O)[C@H](OP(=O)(O)O)[C@H]1O)OC(=O)CCCCCCCCCCCCCCC [c16-PtdIns(4,5)P2] | Similar, but larger, resonance perturbations in DPC-embedded TIRAP PBM spectra were observed |
